Several values for one entry are separate records, joined by “and”; a condition that tells them apart may be missing. Equal values may be shown once. Activity calls are given as the source filed them.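 Rule for the calls: active = compounds giving half or more protection of infected cells from virus-caused growth loss, again on retest; inactive = the rest.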
Tested on: CEM cells HIV-1 protection, formazan growth assay
Test: NCI AIDS Antiviral Assay
Settings: for IC50: measured here: growth of uninfected CEM cells
Summary of the method: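 Steps: treat uninfected and HIV-1-infected human CEM cells at five drug levels; quantify growth by soluble formazan; retest any compound reaching 50% protection; classify actives from the retest.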

Structure (SMILES) | EC50 | IC50 | outcome
O=C(CSc1nnc(Cc2ccccc2)o1)Nc1ccc(Cl)cc1 | > 100 µM | 72.4 µM | 
O=C(CCCC[n+]1ccccc1)Sc1ccccc1C(=O)Nc1ccc(S(=O)(=O)Nc2ccnn2-c2ccccc2)cc1 | 6.17 µM | 35.5 µM | 
COC(=O)C1=C(C)N2CCOC2(C)C(C(=O)OC)C1c1ccc[nH]1 (stereo not given) | > 200 µM | > 200 µM | 
CCN(CCCN(CC)C(=O)Nc1c(C)cccc1C)C(=O)Nc1c(C)cccc1C | > 200 µM | > 200 µM | 
CCCc1cc(=O)oc2c3c(cc(OS(=O)(=O)c4ccc(C)cc4)c12)O[C@H](C)[C@H](C)C3=O | > 151 µM | 95.5 µM | 
CCOC(=O)c1ccc(-c2ccc(Cl)cc2)[nH]1 | > 200 µM | 44.7 µM | 
CCOC(=O)Cc1c[nH]c2ccc(N(CCO)CCO)cc12 | > 200 µM |  | 
O=S(=O)(O)c1cc(N=[N+]([O-])c2cc(S(=O)(=O)O)c3ccccc3c2)cc2ccccc12 | > 200 µM | 93.3 µM | 
COC(=O)c1c2c(cc3nc4ccccc4nc13)OCO2 | > 200 µM | > 200 µM | 
C=C(C)[C@@H]1CC[C@]2(CO)CC[C@]3(C)[C@H](CC[C@@H]4[C@@]5(C)CC[C@H](O)C(C)(C)[C@@H]5CC[C@]43C)[C@@H]12 | 41.7 µM | 69.2 µM | 
CC1=C(C(=O)NC2CCCCC2)CC(C(=O)NC2CCCCC2)=C(C)N1 | > 200 µM | 72.4 µM | 
C[C@H]1Oc2cc(O)c3ccc(=O)oc3c2C(=O)[C@@H]1C | > 200 µM | 17 µM | 
O=N/C(=C(\c1ccccc1)N1CCOCC1)c1ccccc1 |  |  | inactive
O=C(O)CCCCCSCCCCCCSCCCCCC(=O)O | > 50.1 µM | > 50.1 µM | 
O=c1c2ccccc2c(=O)c2cc3c(=O)n(-c4ccccc4)c(=O)c3cc12 |  |  | inactive
CC1=Nc2c([nH]c(=S)[nH]c2=O)NC(c2c(Cl)cccc2Cl)C1 (stereo not given) | > 7.76 µM | > 7.76 µM | 
COC1/C=C/OC2(C)Oc3c(C)c(O)c4c(O)c(c(/C=N/N5CC(C)N(Cc6ccccc6)C(C)C5)c(O)c4c3C2=O)NC(=O)C(C)=C/C=C/C(C)C(O)C(C)C(O)C(C)C(OC(C)=O)C1C (stereo not given) | > 200 µM | 3.09 µM | 
CC(C)OC1OC(CO)C(O)CC1n1cc(F)c(=O)[nH]c1=O (stereo not given) | > 200 µM | 24.5 µM | 
O=[N+]([O-])c1sc2ccc(Cl)cc2c1Nc1ccc(Cl)cc1 | > 200 µM | > 200 µM | 
CC(=O)N(CCN1C(=O)c2ccccc2C1=O)CCN1C(=O)c2ccccc2C1=O |  |  | inactive
CCOP(=O)(OCC)/C(=C/n1c(=S)[nH]c2ccccc21)C(=O)OC | > 200 µM | > 200 µM | 

Structure (SMILES) | EC50 | IC50 | outcome
N#CC(C#N)=c1ccc(=C2N3CCCC3CN2C23CC4CC(CC(C4)C2)C3)cc1 (stereo not given) |  |  | inactive
COC(=O)[C@]1(C)CC[C@]2(C)CC[C@]3(C)C4CC[C@@]56CO[C@@](O)(CCC5[C@]4(C)CCC3(C)[C@@H]2C1)[C@@H]6C (stereo not given in full) | > 28.2 µM | 26.9 µM | 
CC(=O)NC1C(OCC(=O)NCCNc2ccc([N+](=O)[O-])c3[nH]c4ccccc4c(=O)c23)C(O)C(CO)OC1(C)OCc1ccccc1 (stereo not given) | > 200 µM | > 200 µM | 
COc1cc(-c2cccs2)sc1-c1cccs1 | > 9.77 µM | > 9.77 µM | 
COc1ccc(CCC2(C(OC)OC)NC(=O)NC2=O)cc1 (stereo not given) | > 200 µM | > 200 µM | 
COC1/C=C/OC2(C)Oc3c(C)c(O)c4c(O)c(c(/C=N/N5C(C)CN(Cc6ccccc6O)CC5C)c(O)c4c3C2=O)NC(=O)/C(C)=C\C=C\C(C)C(O)C(C)C(O)C(C)C(OC(C)=O)C1C (stereo not given) | > 200 µM | 9.55 µM | 
C=CO/N=[N+](\[O-])N(CC)CC | > 200 µM | > 200 µM | 
Nc1nc(Cl)nc(NCc2ccccc2)n1 | > 200 µM | > 200 µM | 
CC1CCC(NC(=O)N(CCCl)N=O)CC1 (stereo not given) | > 145 µM | > 145 µM | 
Cc1ccc(SSc2ccc(C)cc2[N+](=O)[O-])c([N+](=O)[O-])c1 | > 200 µM | 9.33 µM and 14.5 µM | 
c1ccc([P+](CCNCCNCC[P+](c2ccccc2)(c2ccccc2)c2ccccc2)(c2ccccc2)c2ccccc2)cc1 | > 355 µM | 234 µM | 
COC(=O)[C@@H]1[C@H]2[C@H](OC(=O)c3ccccc3)CCN2C(=O)[C@H]1O | > 200 µM | 75.9 µM | 
CCOC(=O)C(C(=S)Nc1ccccc1)c1nn2c(=O)cc(C)nc2s1 (stereo not given) | > 200 µM | 34.7 µM | 
Cc1cccc(/C=N/NC(=S)NCCc2ccccn2)n1 | > 200 µM | 20.4 µM | 
O=c1[nH]c2cnn(-c3ccccc3)c2c(=O)n1OS(=O)(=O)c1ccccc1 | > 200 µM | > 200 µM | 
O=[N+]([O-])c1nccn1CCC[n+]1ccc2ccccc2c1 | > 100 µM | 74.1 µM | 
CCCCCCNC(=O)/C(=C/C=C/c1ccccc1)NC(=O)c1ccccc1 | > 200 µM | 49 µM | 
CC1c2c(cc(=O)[nH]c2O)C(=O)N1C (stereo not given) | > 245 µM | > 245 µM | 
N#C/C(=C\c1ccc(O)c(O)c1)C(=O)NCCCCCCNC(=O)/C(C#N)=C/c1ccc(O)c(O)c1 | > 200 µM | > 200 µM | 
N#CC(C#N)=Cn1c(=S)[nH]c2ccccc21 | > 200 µM | > 200 µM | 
CC(C)N1CN(C(C(=O)N[C@@H]2C(=O)N3C2SC(C)(C)C3C(=O)O)c2ccccc2)CSC1=S (stereo not given in full) | > 257 µM | 155 µM | 

Structure (SMILES) | EC50 | IC50 | outcome
CC1CCC(=O)NCCCCC(=O)N1 (stereo not given) | > 36.3 µM | > 36.3 µM | 
CC(C)(O)CCC(O)[C@](C)(O)C1CCC2(O)C3=CC(=O)[C@@H]4C[C@@H](O)[C@@H](O)C[C@]4(C)C3CC[C@]12C (stereo not given in full) |  |  | inactive
CSc1nc2c(c(=O)[nH]1)N=C(c1ccccc1)CC(c1ccccc1)N2 (stereo not given) |  |  | inactive
CC1CC(C)S(=O)CS1 (stereo not given) | > 759 µM | > 759 µM | 
CO[C@H](c1ccccc1)[C@H](C)N(C)c1ccc2ccccc2c1C1=NC(C)(C)CO1 | > 64.6 µM | > 64.6 µM | 
CC(=O)OCC1OC(n2c(=S)n(-c3ccc(C)cc3)c(=O)c3ccccc32)C(OC(C)=O)C(OC(C)=O)C1OC(C)=O (stereo not given) | > 31.6 µM | > 31.6 µM | 
Clc1ccc2c(Cl)nc(-c3ccccc3)nc2c1 |  |  | inactive
CC(C(=O)O)n1[se]c2ccccc2c1=O (stereo not given) | 12.6 µM | 120 µM | 
C[C@H]1c2c(n(C3OC(CO)C(O)C3O)c(=O)[nH]c2=O)O[C@@H]1c1ccccc1 (stereo not given in full) | > 200 µM | > 200 µM | 
C=CCO/N=C/c1cc(NC(=S)c2ccoc2C)ccc1Cl | 0.0186 µM | 15.5 µM | 
CN1CCCC1CCNc1nc(C(Cl)(Cl)Cl)nc2cc(Cl)ccc12 (stereo not given) | > 24.5 µM | 12.9 µM | 
CC1=C(C(=O)Nc2ccc([N+](=O)[O-])cc2)C(c2ccc(N(C)C)cc2)C(C(=O)Nc2ccc([N+](=O)[O-])cc2)=C(C)N1 | > 17.8 µM | > 17.8 µM | 
CC(C)(C)OC(=O)NC(Cc1ccc(O)cc1)/C(O)=C(\C#N)c1c(F)c(F)c(F)c(F)c1F (stereo not given) | > 200 µM | 123 µM | 
NS(=O)(=O)c1ccc(N=Nc2c(O)n(-c3ccccc3)n(-c3ccccc3)c2=O)cc1 | > 200 µM | 79.4 µM | 
N#CC1(C#N)C(C#N)(C#N)C12CCCC2 | > 20 µM | 10.5 µM | 
Nc1nc(CCC(=O)Nc2cccc(C(F)(F)F)c2)cc(-c2ccc3ccccc3c2)n1 | > 575 µM | > 575 µM | 
O=C(O)C1CCC(c2ccc(Oc3ccccc3)cc2)=N1 (stereo not given) | > 200 µM | > 200 µM | 
CC1CCC2C(C)C3C(CC4C5CC=C6CC(O)CCC6(C)C5CCC43COC(=O)c3ccccc3)N2C1 (stereo not given) | > 69.2 µM | > 69.2 µM | 
Cc1ccc(C2(O)CC(c3ccc([N+](=O)[O-])o3)=NN2C(=O)COc2ccc(Cl)cc2)cc1 (stereo not given) | > 11.5 µM | > 11.5 µM | 
C#Cc1c(C)c(/C=C/C(C)=C/C=C/C(C)=C/C(=O)OC)n(C)c1C | > 22.4 µM | > 22.4 µM | 
C[C@H]1O[C@@H](C(C)(C)C)OC(=O)[C@@H]1C(OC(=O)c1ccccc1)c1cccc2ccccc12 (stereo not given in full) | > 200 µM | 83.2 µM | 

Structure (SMILES) | EC50 | IC50 | outcome
CC(=O)C(N=Nc1ncn[nH]1)C(C)=O | > 200 µM | 170 µM | 
COC[n+]1cc2cc(OC)c(OC)cc2c2ccc3cc(OC)c(OC)cc3c21 | > 31.6 µM | > 31.6 µM | 
O=C(/C=C\c1ccc(Cl)c(Cl)c1)c1ccccc1 | > 200 µM | 10 µM | 
CCCCCCCCCCCCNC1(C)CNCCCNCCNCCCNC1 | > 251 µM | 1.41 µM | 
Cc1ccnc(NC(=O)Nc2ccc(F)c([N+](=O)[O-])c2)c1 | > 200 µM | > 200 µM | 
O=C(CCSSCCC(=O)ON1C(=O)CCC1=O)ON1C(=O)CCC1=O | > 200 µM | > 200 µM | 
CCN1C[C@]2(OC(=O)c3ccccc3NC(C)=O)CCC(OC)C34[C@@H]1[C@@](O)(C[C@@H]32)[C@@]1(O)C[C@H](OC)[C@@H]2C[C@@H]4[C@]1(O)C2OC (stereo not given in full) |  |  | inactive
COC1C(OC(=O)c2ccc(C)[nH]2)C(O)C(Oc2ccc3c(O)c(NC(=O)c4c[nH]c(C(=O)Nc5c(O)c6ccc(OC7OC(C)(C)C(OC)C(OC(=O)c8ccc(C)[nH]8)C7O)c(C)c6oc5=O)c4C)c(=O)oc3c2C)OC1(C)C (stereo not given) | > 28.2 µM | 7.41 µM | 
COC(=O)/C=C(/CNC(=O)OCc1ccccc1)c1ccccc1 |  |  | inactive
CC[C@H](O)[C@H](C)C=C1SCCCS1 | > 200 µM | > 200 µM | 
CN1CCCOC(c2ccc([N+](=O)[O-])cc2)O1 (stereo not given) | > 200 µM | > 200 µM | 
Cc1cc(S(=O)(=O)Nc2n[nH]c(-c3ccccn3)n2)c(S)cc1Cl | > 200 µM | 4.17 µM | 
COc1ccc2oc(=O)c(-c3csc(-c4ccccc4)n3)cc2c1 |  |  | inactive
CCCCn1c(N)n[nH]c1=S |  |  | inactive
O=C(Nc1ccc(Br)cc1)c1c(-c2ccccc2)c2ccc(O)cc2oc1=O | > 34.7 µM | 32.4 µM | 
Nc1ccc2ncc(Nc3ccc(Cl)c(Cl)c3)nc2c1 | > 8.91 µM | > 8.91 µM | 
Nc1c(N=Nc2ccc(S(=O)(=O)c3ccc(N=Nc4cc(S(=O)(=O)O)c5cccc(S(=O)(=O)O)c5c4N)cc3)cc2)cc(S(=O)(=O)O)c2cccc(S(=O)(=O)O)c12 | 25.1 µM | 380 µM | 
CC(C)=CCc1c(-c2ccc(O)cc2O)oc2c3c(cc(O)c2c1=O)OC(C)(C)C=C3 | > 17.4 µM | 13.8 µM | 

Source: PubChem BioAssay AID179 (DTP/NCI, 2004)
